target: NSP14 (Severe acute respiratory syndrome coronavirus 2, UniProt P0DTD1); experiment: NSP14 MTase inhibition assay at 37° C. (MTase-Glo SAH detection); format: biochemical, SARS-CoV-2; details: 0.3 nM NSP14, 2.5 μM SAM, 2.5 μM GpppA RNA, 45 min at 37° C.; read-out: Nsp14 Mtase Inh. IC50
Protocol: NSP14 MTase assay at 37° C. (0.3 nM NSP14 as final enzyme concentration)
The NSP14 MTase assay at 37° C. is carried out in 384-well flat bottom polystyrene microplates (Greiner, 781075). Per well, 10 μl of 1×NSP14 reaction buffer (50 mM Tris-HCl, pH 7.5, 6 mM KCl, 1.25 mM MgCl2, 1 mM DTT, and 0.01% Tween-20) are dispensed in columns 1-23 using a Thermo Multidrop Combi dispenser (Thermo Scientific). 0.1 μl of serially diluted compounds in DMSO are dispensed into columns 1-22 of the assay microplates with a Janus 384 MDT NanoHead (PerkinElmer). In wells of column 23, which serve as negative controls, no compounds are added.
The NSP14 reaction is started by adding 4 μl of a 4× substrate solution containing S-adenosyl methionine (SAM, 10 μM) and GpppA RNA (10 μM) prepared in 1×NSP14 reaction buffer. Any addition of reagents is followed by a 30 second centrifugation at 500×g to ensure that all liquid was collected at the bottom of the well. The final concentrations of NSP14, SAM, and GpppA RNA are 0.3 nM, 2.5 μM, and 2.5 μM, respectively. The final reaction volume is 16 μl. Plates are sealed and incubated for 45 min at 37° C.
For SAH detection, 1 μl 5× MTase-Glo™ Reagent (Promega) is added to each well, plates are mixed for 1-2 minutes and incubated at room temperature for 30 minutes. 5 μl of room-temperature MTase-Glo™ Detection Solution (Promega) is added to each well, plates are mixed for 1-2 minutes and incubated at room temperature for 30 minutes. Luminescence signals of each well are recorded in relative light units (RLUs) using a Biotek Synergy Neo plate reader (BioTek, Winooski, VT). The SAH production is normalized against the positive control (PK, column 24) and negative control (NK, column 23) as follows: normalized % inhibition=100×(RLUsample-RLUaverageNK)/(RLUaveragePK-RLUaverageNK).

| SMILES | IC50 [nM] |
| --- | --- |
| Cc1c(S(=O)(=O)c2ccc3[nH]ncc3c2)cc(C(=O)N[C@@H]2CCN(c3cnc(F)cn3)C2)n1C [A.50] | < 0.15 |
| Cc1c(S(=O)(=O)c2ccc3[nH]ncc3c2)cc(C(=O)N[C@H]2C[C@@H](N(C)c3ncc(F)cn3)C2)n1C [A.98] | 0.39 |
| COCC1(NC(=O)c2cc(S(=O)(=O)c3ccc4[nH]ncc4c3)c(C)n2C)CCN(c2ncc(F)cn2)C1 (single isomer, unassigned) [A.114, 4-((1H-indazol-5-yl)sulfonyl)-N-(1-(5-fluoropyrimidin-2-yl)-3-(methoxymethyl)pyrrolidin-3-yl)-1,5-dimethyl-1H-pyrrole-2-carboxamide] | 0.87 |
| Cc1c(S(=O)(=O)c2ccc3[nH]ncc3c2)cc(C(=O)N[C@@H]2CCN(c3ncc(F)cc3F)C2)n1C [A.54] | < 0.15 |
| Cc1c(S(=O)(=O)c2ccc3[nH]ncc3c2)cc(C(=O)NC2(CO)CCN(c3ncc(F)cn3)C2)n1C (single isomer, unassigned) [A.117, 4-((1H-indazol-5-yl)sulfonyl)-N-(1-(5-fluoropyrimidin-2-yl)-3-(hydroxymethyl)pyrrolidin-3-yl)-1,5-dimethyl-1H-pyrrole-2-carboxamide] | 2.8 |
| Cc1c(S(=O)(=O)c2ccc3[nH]ncc3c2)cc(C(=O)N[C@@H]2CCN(c3ccc(F)cc3C#N)C2)n1C [A.82] | 0.45 |
| Cc1c(S(=O)(=O)c2ccc3[nH]ncc3c2)cc(C(=O)N[C@@H]2CCN(c3ccc(F)cc3)C2)n1C [A.81] | 0.58 |
| Cc1c(S(=O)(=O)c2ccc3[nH]ncc3c2)cc(C(=O)N[C@@H]2CCN(c3cnn(C)c(=O)c3)C2)n1C [A.111] | < 0.15 |
| Cc1c(S(=O)(=NCCO)c2ccc3[nH]ncc3c2)cc(C(=O)N[C@@H]2CCN(c3ncc(F)cn3)C2)n1C (some centres unmarked) [A.102] | 0.46 |
| Cc1c(S(=O)(=O)c2ccncc2)cc(C(=O)NCc2cccc3cnn(C)c23)n1C [A.27] | 102 |
| Cc1c(S(=O)(=O)c2ccc3[nH]ncc3c2)cc(C(=O)N[C@H]2CN(c3ncc(F)cn3)CC23CC3)n1C [A.62] | 0.41 |

same assay, conditions: 37° C., 0.3 nM NSP14, 2.5 μM SAM, 2.5 μM GpppA RNA; read-out: Nsp14 Mtase Inh. IC50

| SMILES | IC50 [nM] |
| --- | --- |
| Cc1c(S(=O)(=O)c2ccc3[nH]ncc3c2)cc(C(=O)NCc2nccn2C)n1C [B.131] | 79 |
| Cc1c(S(=O)(=O)c2ccc3[nH]ncc3c2)cc(C(=O)NNc2c(F)cccc2F)n1C [B.75] | 9.6 |
| Cc1c(S(=O)(=O)c2ccc3[nH]nc(C#N)c3c2)cc(C(=O)NCc2cccc3cnn(C)c23)n1C [B.29] | 138 |
| Cc1c(S(=O)(=O)c2ccc3[nH]ncc3c2)cc(C(=O)NCc2cccnc2C(F)(F)F)n1C [B.53] | 7 |
| Cc1c(S(=O)(=O)c2cc(F)c3[nH]ncc3c2)cc(C(=O)NCc2cccc(CN3CCCC3)c2)n1C [B.59] | 41 |
| Cc1c(S(=O)(=O)c2ccc3[nH]ncc3c2)cc(C(=O)NC(=O)c2ccccc2)n1C [B.169] | 3.2 |
| Cc1c(S(=O)(=O)c2cc(F)c3[nH]nc(F)c3c2)cc(C(=O)NCc2c(F)ccc3cnn(C4CC4)c23)n1C [B.99] | 0.15 |
| Cc1c(S(=O)(=O)c2cc(C#N)c3[nH]ncc3c2)cc(C(=O)NCc2cccc3cnn(C4CC4)c23)n1C [B.106] | 0.32 |
| Cc1c(S(=O)(=O)c2ccc3c(cnn3C)c2)cc(C(=O)NCc2cccnc2N2CCC(C(=O)O)C2)n1C (centres unmarked) [B.47] | 1.7 |
| Cc1c(S(=O)(=O)c2ccc3c(cnn3C)c2)cc(C(=O)NCc2c(F)ccc3cnn(C4CC4)c23)n1CCCC(=O)O [B.62] | < 0.15 |
| Cc1c(S(=O)(=O)c2ccc3[nH]ncc3c2)cc(C(=O)NCc2cccc3ccc(=O)n(C)c23)n1C [B.11] | 2.1 |
| Cc1c(S(=O)(=O)c2ccc3[nH]ncc3c2)cc(C(=O)NCc2ccnn2C(F)F)n1C [B.165] | 14 |
| Cc1c(S(=O)(=O)c2ccc3[nH]ncc3c2)cc(C(=O)NCc2c(F)cc[nH]c2=O)n1C [B.113] | 0.34 |
| Cc1c(S(=O)(=O)c2ccc3[nH]ncc3c2)cc(C(=O)NCc2c(F)ccc3c2N(C)C(=O)C3(F)F)n1C [B.74] | 0.5 |
| Cc1cc(CNC(=O)c2cc(S(=O)(=O)c3ccc4[nH]ncc4c3)c(C)n2C)n(C)n1 [B.147] | 145 |

— patent publication US20260226034A1 (The Rockefeller University, priority 2023, published 2026)
